The record followed here is paper PMC6835510, “Magnificamide, a β-Defensin-Like Peptide from the Mucus of the Sea Anemone Heteractis magnifica, Is a Strong Inhibitor of Mammalian α-Amylases” (Marine Drugs, 2019).

Series [1] has as its system 18 subtypes of voltage-gated potassium and voltage-gated sodium channels. In words: Electrophysiological screening, overall. It counts as cell-based. As to conditions: 10 µM, Xenopus laevis oocytes. From the text:
(§1) For the expression of Nav channels (mammalian rNav1.2, rNav1.4, hNav1.5, mNav1.6 and hNav1.8 channels; the insect channel BgNav1 from Blattella germanica; and the auxiliary subunits rβ1, hβ1, and TipE) and Kv channels (mammalian rKv1.1, rKv1.2, hKv1.3, rKv1.4, rKv1.5, rKv1.6, rKv2.1, hKv3.1, rKv4.2, hKv10.1, and hERG; and Drosophila Shaker’s IR) in Xenopus laevis oocytes; the linearized plasmids were transcribed using the T7 or SP6 mMESSAGE-mMACHINE transcription kit (Ambion, Carlsbad, CA, USA). The harvesting of stage V–VI oocytes from anesthetized female Xenopus laevis frog was previously described. Oocytes were injected with 50 nL of cRNA at a concentration of 1 ng/nL using a microinjector (Drummond Scientific, Broomall, PA, USA). The oocytes were incubated in a solution containing 96-mM NaCl, 2-mM KCl, 1.8-mM CaCl2, 2-mM MgCl2, and 5-mM HEPES (pH 7.4), supplemented with 50 mg/L gentamycin sulfate.
Two-electrode voltage-clamp recordings were performed at room temperature (18–22 °C) using a Geneclamp 500 amplifier (Molecular Devices, Downingtown, PA, USA) controlled by a pClamp data acquisition system (Axon Instruments, Union City, CA, USA). Whole cell currents from oocytes were recorded 1–4 days after injection. The bath solution’s composition was 96-mM NaCl, 2-mM KCl, 1.8-mM CaCl2, 2-mM MgCl2, and 5-mM HEPES (pH 7.4). Toxins were applied directly to the bath. Resistances of both electrodes were kept between 0.8 and 1.5 MΩ. The elicited currents were sampled at 20 kHz (Nav) or 2 kHz (Kv), filtered at 2 kHz (Nav) or 0.5 kHz (Kv) using a four-pole low-pass Bessel filter. Leak subtraction was performed using a -P/4 protocol. […] For the electrophysiological analysis, a number of protocols were applied from a holding potential of −90 mV with a start-to-start interval of 0.2 Hz. Kv1.1–Kv1.6 and Shaker currents were evoked by 250-ms depolarizations to 0 mV followed by a 250 ms pulse to −50 mV from a holding potential of −90 mV. […] All data were analyzed using pClamp Clampfit 10.0 (Molecular Devices, Downingtown, PA, USA) and Origin 7.5 software (Originlab, Northampton, MA, USA).

The target of series [2] is human salivary α-amylase (HSA) (Homo sapiens, UniProt P0DUB6). In words: Determination of Ki against human saliva α-amylase (Morrison). As to conditions: 37 °C, 50 mM sodium phosphate, 100 mM NaCl, pH 7.0; CNPG3 3.3 mM (KM 3.4 mM), nominal [E] 100 nM; 10 min pre-incubation; 405 nm; Morrison fit, competitive mode assumed; mean ± SE (n = 3); read-out: Ki against HSA. It counts as biochemical. The method, then:
For a quantitative assessment of tight-binding inhibitor potency, Morrison’s method was applied. This method uses the Morrison quadratic equation (Equation (1)) for fitting inhibitor-response data and determining Ki app as a nonlinear regression parameter. (1) υ/υo=1−([E]+[I]+Kiapp)−([E]+[I]+Kiapp)^2−4[E][I]/2[E]o
Kinetic assays were carried out at 37 °C in 50 mM sodium phosphate and 100 mM sodium chloride (pH 7.0). 2-Chloro-4-nitrophenyl-α-maltotrioside (CNPG3) (Sigma Aldrich, St. Louis, MO, USA) was used as the substrate and the optical absorption of the 2-chloro-4-nitrophenol was measured at 405 nm. Reactions were run with final [CNPG3] = 1 mM ([S]/KM = 1.41, KM = 0.71 mM), nominal [E] = 20 nM for PPA, [CNPG3] = 3.3 mM ([S]/KM = 0.97, KM = 3.4 mM), and nominal [E] = 100 nM for HSA to provide sufficient analytical signal. Inhibitor dilution schemes were optimized considering recommendations in [34].
The enzyme was pre-incubated with the inhibitor for 10 minutes before the addition of substrate which launched the reaction. Reactions were monitored on an xMark microplate spectrophotometer (BioRad, USA) in the kinetic mode for 30 min. The initial linear steady state region provided initial rate values for each inhibitor concentration (υ), along with uninhibited rate values (υo). Measurements were run in triplicate. […]

The next series relates to rKv1.2. In words: Two-electrode voltage-clamp. In kind it is cell-based, mammalian. As to conditions: 10 µM; Xenopus laevis oocytes; 18–22 °C.
Source text: as §1
(§2) Two-electrode voltage-clamp recordings were performed at room temperature (18–22 °C) using a Geneclamp 500 amplifier (Molecular Devices, Downingtown, PA, USA) controlled by a pClamp data acquisition system (Axon Instruments, Union City, CA, USA). Whole cell currents from oocytes were recorded 1–4 days after injection. The bath solution’s composition was 96-mM NaCl, 2-mM KCl, 1.8-mM CaCl2, 2-mM MgCl2, and 5-mM HEPES (pH 7.4). Toxins were applied directly to the bath. Resistances of both electrodes were kept between 0.8 and 1.5 MΩ. The elicited currents were sampled at 20 kHz (Nav) or 2 kHz (Kv), filtered at 2 kHz (Nav) or 0.5 kHz (Kv) using a four-pole low-pass Bessel filter. Leak subtraction was performed using a -P/4 protocol. […] For the electrophysiological analysis, a number of protocols were applied from a holding potential of −90 mV with a start-to-start interval of 0.2 Hz. Kv1.1–Kv1.6 and Shaker currents were evoked by 250-ms depolarizations to 0 mV followed by a 250 ms pulse to −50 mV from a holding potential of −90 mV. Current traces of hERG channels were elicited by applying a +40 mV prepulse for 2 s followed by −120 mV for 2 s. Kv2.1, Kv3.1, and Kv4.2 currents were elicited by 250 ms pulses to +20 mV from a holding potential of −90 mV. Kv10.1 currents were evoked by 2-s depolarizing pulses to 0 mV from a holding potential of −90 mV. Sodium current traces were evoked by 100-ms depolarization to the voltage corresponding to maximal sodium current in control conditions. All data were analyzed using pClamp Clampfit 10.0 (Molecular Devices, Downingtown, PA, USA) and Origin 7.5 software (Originlab, Northampton, MA, USA).
In general terms: Two-electrode voltage clamp is typically applied to oocytes expressing channels or transporters.

A further series deals with hERG. In words: Two-electrode voltage-clamp. In kind it is cell-based, mammalian. As to conditions: 10 µM; Xenopus laevis oocytes; 18–22 °C.
Source text: as §1, §2

A further series relates to rKv1.4. In words: Two-electrode voltage-clamp. It counts as cell-based, mammalian. As to conditions: 10 µM; Xenopus laevis oocytes; 18–22 °C.
Source text: as §1, §2

The test system of the next series is rKv1.1. In words: Two-electrode voltage-clamp. In kind it is cell-based, mammalian. The conditions noted are these: 10 µM; Xenopus laevis oocytes; 18–22 °C.
Source text: as §1, §2

The subject of a further series is rKv1.6. In words: Two-electrode voltage-clamp. The conditions noted are these: 10 µM; Xenopus laevis oocytes; 18–22 °C. It counts as cell-based, mammalian.
Source text: as §1, §2

Another series concerns rKv2.1. In words: Two-electrode voltage-clamp. In kind it is cell-based, mammalian. The conditions noted are these: 10 µM; Xenopus laevis oocytes; 18–22 °C.
Source text: as §1, §2

For another series, the system named is rNav1.2. In words: Two-electrode voltage-clamp. In kind it is cell-based, mammalian. As to conditions: 10 µM; Xenopus laevis oocytes; 18–22 °C.
Source text: as §1, §2

The test system of another series is hKv3.1. In words: Two-electrode voltage-clamp. It counts as cell-based, mammalian. The conditions noted are these: 10 µM; Xenopus laevis oocytes; 18–22 °C.
Source text: as §1, §2

For a further series, the system named is rNav1.4. In words: Two-electrode voltage-clamp. In kind it is cell-based, mammalian. The conditions noted are these: 10 µM; Xenopus laevis oocytes; 18–22 °C.
Source text: as §1, §2

The next series concerns hNav1.5. In words: Two-electrode voltage-clamp. In kind it is cell-based, mammalian. The conditions noted are these: 10 µM; Xenopus laevis oocytes; 18–22 °C.
Source text: as §1, §2

The subject of a further series is mNav1.6. In words: Two-electrode voltage-clamp. In kind it is cell-based, mammalian. As to conditions: 10 µM; Xenopus laevis oocytes; 18–22 °C.
Source text: as §1, §2

In a further series the test system is hKv1.3. In words: Two-electrode voltage-clamp. It counts as cell-based, mammalian. As to conditions: 10 µM; Xenopus laevis oocytes; 18–22 °C.
Source text: as §1, §2

The next series has as its system hKv10.1. In words: Two-electrode voltage-clamp. In kind it is cell-based, mammalian. The conditions noted are these: 10 µM; Xenopus laevis oocytes; 18–22 °C.
Source text: as §1, §2

The subject of the next series is rKv1.5. In words: Two-electrode voltage-clamp. In kind it is cell-based, mammalian. The conditions noted are these: 10 µM; Xenopus laevis oocytes; 18–22 °C.
Source text: as §1, §2

Bridge positions count the residues as written; N and C are the ends. Ends that are not written are not given here.

Sequence of human salivary α-amylase (HSA) (P0DUB6 16-511): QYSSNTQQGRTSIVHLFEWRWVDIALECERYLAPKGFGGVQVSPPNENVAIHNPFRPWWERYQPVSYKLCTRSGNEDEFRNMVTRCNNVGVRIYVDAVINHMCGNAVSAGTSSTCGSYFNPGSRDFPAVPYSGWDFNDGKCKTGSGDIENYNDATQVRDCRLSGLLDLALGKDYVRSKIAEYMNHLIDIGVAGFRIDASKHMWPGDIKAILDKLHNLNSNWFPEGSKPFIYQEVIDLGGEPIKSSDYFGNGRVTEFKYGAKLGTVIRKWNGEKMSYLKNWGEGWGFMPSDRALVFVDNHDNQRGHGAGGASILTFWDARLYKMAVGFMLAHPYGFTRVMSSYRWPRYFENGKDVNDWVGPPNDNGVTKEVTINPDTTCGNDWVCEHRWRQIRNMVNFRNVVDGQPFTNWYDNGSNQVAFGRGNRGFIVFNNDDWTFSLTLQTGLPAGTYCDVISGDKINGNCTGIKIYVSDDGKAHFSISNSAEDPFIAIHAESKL

As for “SEGTSCYIYHGVYGICKAKCAEDMKAMAGMGVCEGDLCCYKTPW (disulfide 6-38, 16-33, 20-39) [r-magnificamide]”, the figures for the “Ion channel modulating activity, overall” value in [1] (listed as r-Magnificamide) and in series [1] (listed as recombinant analog of magnificamide) were “did not reveal ion channel modulating activity” and “does not show antimicrobial or channel modulating activities”, respectively. Moreover, the Ki – broadly, a measure of affinity in units of concentration, obtained from inhibition or displacement – in [2] was 7.7 ± 1.5 nM. Also, the “Channel modulating activity, Kv1.2” value in the series with rKv1.2 is on record as “Not active”. Further, the “Channel modulating activity, hERG” value in the series with hERG is “Not active”. The “Channel modulating activity, Kv1.4” value in the series with rKv1.4 is listed as “Not active”. In addition, the “Channel modulating activity, Kv1.1” value in the series on rKv1.1 was “Not active”. For the same sequence, in the series on rKv1.6, the “Channel modulating activity, Kv1.6” value is on record as “Not active”. Also, the “Channel modulating activity, Kv2.1” value in the series with rKv2.1 is listed as “Not active”. In addition, the “Channel modulating activity, Nav1.2” value in the series on rNav1.2 was “Not active”. Besides, the “Channel modulating activity, Kv3.1” value in the series on hKv3.1 is on record as “Not active”. In the series on rNav1.4, the “Channel modulating activity, Nav1.4” value is “Not active”. Further, the “Channel modulating activity, Nav1.5” value with hNav1.5 is reported as “Not active”. In addition, in the series with mNav1.6, the “Channel modulating activity, Nav1.6” value is “Not active”. Moreover, the “Channel modulating activity, Kv1.3” value in the series with hKv1.3 is “Not active”. Moreover, the “Channel modulating activity, Kv10.1” value in the series on hKv10.1 is recorded as “Not active”. Also, the “Channel modulating activity, Kv1.5” value in the series with rKv1.5 is reported as “Not active”.
